From US7163959B2, “Prostagladin derivatives for the treatment of glaucoma or ocular hypertension” (priority 1990, dated 2007)

Key:
cynomolgus monkeys = assay: Intraocular pressure (pneumatonometer) in cynomolgus monkeys; format: in vivo, cynomolgus monkey; conditions: for Intraocular pressure, time after administration 0 hours / Intraocular pressure, time after administration 1–2 hours / Intraocular pressure, time after administration 3–4 hours / Intraocular pressure, time after administration 6 hours: cynomolgus monkeys, experimental eye (E), topical, dose μg: PGF2α-IE 1.5, (1) 3.2, (2) 3.2, (9) 10.4, (10) 3.1, (8) 3.2; for Intraocular pressure, time after administration 0 hours: baseline; for Intraocular pressure lowering effect, in words: monkeys (primates), topical (Table V)
Procedure: (§1) The intraocular pressur (IOP) was determined in animals with a pneumatonometer (Digilab Modular One™, Bio Rad), specially calibrated for the eye of the particular species. The cornea was anaesthetized with 1–2 drops of oxibuprocain before each XOP measurement. In healthy human volunteers IOP was measured with applanation tonometry or with an air puff tonometer (Keeler pulsair). For applanation tonometry either a pneumatonometer (Digilab) or Goldmann's applanation tonometer mounted on a slit lamp microscope was used. The cornea was anaesthetized with oxibuprocain before each measurement with applanation tonometry. No local anaesthesia was employed before measurement with the pulsair tonometer.

rabbit eye = assay: Conjunctival hyperemia after topical application in rabbits; format: in vivo; conditions: for Degree of hyperemia: topical, conjunctival hyperemia scale 0 to 4, dose 0.5 μg, PGF2α-IE 0.1 μg; for Conjunctival hyperemia, in words: topical (Table IV)
Procedure: Conjunctival hyperemia after topical application of the test substances was evaluated in rabbits. […] Conjunctival hyperemia was evaluated on a scale from 0 to 4, 0 indicating complete absence of any hyperemia, and 4 indicating marked hyperemia with conjunctival chemosis.

cat eye = assay: Ocular discomfort (irritation) after topical application in cats; conditions: topical (Table III)
Procedure: The ocular discomfort after application of the test substances was evaluated in cats. The behaviour of cats after topical application of the test drug was followed and ocular discomfort was graded on a scale from 0 to 3, 0 indicating complete absence of any signs of discomfort, and 3 indicating maximal irritation as obvious from complete lid closure.
Therefore, the cat eye, being very sensitive to prostaglandins was used for evaluating ocular discomfort and the rabbit eye with pronounced tendency to hyperemic reactions was used for evaluating conjunctival and episcleral hyperemia.

healthy human volunteers [1] = assay: Intraocular pressure (tonometry) in healthy human volunteers; format: in vivo; conditions: for Effect on intraocular pressure, in words: healthy human volunteers (Table VI); for Intraocular pressure, time after administration 0 hours / Intraocular pressure, time after administration 4 hours / Intraocular pressure, time after administration 6 hours / Intraocular pressure, time after administration 8 hours: healthy human volunteers, Exp eye, dose μg: (2) 1, (7) 10, (9) 1, (10) 5; for Intraocular pressure, time after administration 0 hours: baseline; for Intraocular pressure, time after administration 0 hours / Intraocular pressure, time after administration 4 hours / Intraocular pressure, time after administration 6 hours: (3) 10
Procedure: as §1

healthy human volunteers [2] = assay: Ocular side effects (discomfort, hyperemia) in healthy human volunteers; conditions: for Irritating effect (ocular discomfort), in words: healthy human volunteers; for Conjunctival/episcleral hyperemia, in words: in man
cat eyes = assay: Intraocular pressure (pneumatonometer) in cats; format: in vivo; conditions: for Intraocular pressure, time after administration 0 hours / Intraocular pressure, time after administration 1–2 hours / Intraocular pressure, time after administration 3–4 hours / Intraocular pressure, time after administration 6 hours: cat eyes, experimental eye (E), topical, dose μg: (4) 5, (20) 1; for Intraocular pressure, time after administration 0 hours: baseline; for Intraocular pressure lowering effect, in words: cats, topical (Table V)
Procedure: as §1

monkey = conditions: compounds or their esters, Bito et al, 1989; cited from earlier work
man = conditions: clinical studies, Flach and Eliason (1988); cited from earlier work

Row | Compound | Intraocular pressure, time after administration 0 hours (cynomolgus monkeys) | Intraocular pressure, time after administration 1–2 hours (cynomolgus monkeys) | Intraocular pressure, time after administration 3–4 hours (cynomolgus monkeys) | Intraocular pressure, time after administration 6 hours (cynomolgus monkeys) | Degree of hyperemia (rabbit eye) | Effect on intraocular pressure, in words (healthy human volunteers [1]) | Intraocular pressure, time after administration 0 hours (healthy human volunteers [1]) | Intraocular pressure, time after administration 4 hours (healthy human volunteers [1]) | Intraocular pressure, time after administration 6 hours (healthy human volunteers [1]) | Irritating effect (ocular discomfort), in words (healthy human volunteers [2]) | further results
1 | 16-[4-(methoxy)-phenyl]-17,18,19,20-tetranor-PGF2α-isopropylester [Substance 8] | E 11.2 ± 0.9 mmHg | 10.5 ± 1.3 mmHg | 9.8 ± 1.4 mmHg | 9.2 ± 0.9 mmHg | – | – | – | – | – | – | –
2 | 16-phenyl-17,18,19,20-tetranor-PGF2α-isopropylester [Substance 1] | E 12.7 ± 1.1 mmHg | 11.8 ± 1.1 mmHg | 9.1 ± 0.8 mmHg | 8.4 ± 0.7. mmHg | 1.3 ± 0.9 | – | – | – | – | – | Intraocular pressure lowering effect, in words (cynomolgus monkeys): reduced the intraocular pressure; Ocular irritation (discomfort), in words (cat eye): irritating; Ocular irritation (discomfort), in words (cat eye; listed as 16-phenyl-17,18,19,20-tetranor-PGF2α-IE): clear ocular discomfort
3 | 18-phenyl-19,20-dinor-PGF2α-isopropylester [Substance 10] | E 9.7 ± 0.9 mmHg | 9.6 ± 1.1 mmHg | 9.6 ± 0.7 mmHg | 8.8 ± 0.9 mmHg | – | significantly reduced the intraocular pressure | 14.4 ± 1.0 mmHg | 12.2 ± 1.1 mmHg | 12.4 ± 1.2 mmHg | none of the compounds had any significant irritating effect | Intraocular pressure lowering effect, in words (cynomolgus monkeys): reduced the intraocular pressure; Intraocular pressure, time after administration 8 hours (healthy human volunteers [1]): 11.9 ± 0.7 mmHg
4 | 19-phenyl-20-nor-PGF2α-isopropylester [Substance 20] | – | – | – | – | – | – | – | – | – | – | Intraocular pressure, time after administration 0 hours (cat eyes): E 16.9 ± 1.0 mmHg; Intraocular pressure, time after administration 1–2 hours (cat eyes): 16.6 ± 0.7 mmHg; Intraocular pressure, time after administration 3–4 hours (cat eyes): 15.8 ± 0.8 mmHg; Intraocular pressure, time after administration 6 hours (cat eyes): 18.1 ± 1.2 mmHg; Intraocular pressure lowering effect, in words (cat eyes): reduced the intraocular pressure
5 | CCCCCC(C=CC1C(O)CC(=O)C1CC=CCCCC(=O)OC(C)C)OC(=O)CC (stereo not shown) [15-propionate-PGE2-IE, reference compound] | – | – | – | – | 2.7 ± 0.3 | – | – | – | – | – | –
6 | CCCCC[C@H](O)/C=C/[C@H]1C=CC(=O)[C@@H]1C/C=C\CCCC(=O)O [PGA2] | – | – | – | – | – | – | – | – | – | – | IOP effect, in words (monkey): lower IOP
7 | CCCCC[C@H](O)/C=C/[C@H]1[C@H](O)CC(=O)[C@@H]1C/C=C\CCCC(=O)O [PGE2] | – | – | – | – | – | – | – | – | – | – | IOP effect, in words (monkey): lower IOP; IOP effect, in words (man): IOP-lowering effect
8 | CCCCC[C@H](O)/C=C/[C@@H]1[C@@H](C/C=C\CCCC(=O)OC(C)C)[C@@H](O)C[C@H]1O [PGF2α-isopropylester, reference compound] | E 11.4 ± 0.7 mmHg | 8.3 ± 0.5 mmHg | 8.0 ± 0.6 mmHg | 9.3 ± 0.8 mmHg | 2.8 ± 0.2 | – | – | – | – | – | –
9 | CC(C)OC(=O)CCC/C=C\C[C@@H]1[C@@H](/C=C/[C@@H](O)CCc2ccccc2)[C@H](O)C[C@@H]1O [Substance 2, 17-phenyl-18,19,20-trinor-PGF2α-isopropylester] | E 12.8 ± 0.6 mmHg | 11.9 ± 0.5 mmHg | 8.6 ± 0.3 mmHg | 9.5 ± 0.7 mmHg | 2.0 ± 0.3 | significantly reduced the intraocular pressure | 11.9 ± 1.7 mmHg | 11.0 ± 0.9 mmHg | 10.1 ± 0.7 mmHg | none of the compounds had any significant irritating effect | Intraocular pressure lowering effect, in words (cynomolgus monkeys): retained IOP lowering effect; Intraocular pressure, time after administration 8 hours (healthy human volunteers [1]): 9.8 ± 0.7 mmHg; Ocular irritation (discomfort), in words (cat eye): complete loss of ocular irritation
10 | CC(C)OC(=O)CCC/C=C\C[C@@H]1[C@@H](/C=C/C(=O)CCc2ccccc2)[C@H](O)C[C@@H]1O [Substance 3, 15-dehydro-17-phenyl-18,19,20-trinor-PGF2α-isopropylester] | – | – | – | – | 0.7 ± 0.3 | significantly reduced the intraocular pressure | 17.7 ± 0.6 mmHg | 14.6 ± 0.2 mmHg | 13.6 ± 0.7 mmHg | none of the compounds had any significant irritating effect | Conjunctival hyperemia, in words (rabbit eye): advantageous in this respect; Conjunctival/episcleral hyperemia, in words (healthy human volunteers [2]): very little if any conjunctival/episcleral hyperemia
11 | CC(C)OC(=O)CCC/C=C\C[C@@H]1[C@@H](/C=C/[C@@H](O)COc2ccccc2)[C@H](O)C[C@@H]1O [Substance 4, 16-phenoxy-17,18,19,20-tetranor-PGF2α-isopropylester] | – | – | – | – | – | – | – | – | – | – | Intraocular pressure, time after administration 0 hours (cat eyes): E 20.5 ± 1.2 mmHg; Intraocular pressure, time after administration 1–2 hours (cat eyes): 25.7 ± 1.2 mmHg; Intraocular pressure, time after administration 3–4 hours (cat eyes): 19.2 ± 1.8 mmHg; Intraocular pressure, time after administration 6 hours (cat eyes): 15.0 ± 1.2 mmHg; Intraocular pressure lowering effect, in words (cat eyes): effectively lowers the intraocular pressure
12 | CC(C)OC(=O)CCC/C=C\C[C@H]1C(=O)C[C@@H](O)[C@@H]1/C=C/[C@@H](O)CCc1ccccc1 [Substance 5, 17-phenyl-18,19,20-trinor-PGE2-isopropylester] | – | – | – | – | 2.7 ± 0.2 | – | – | – | – | – | Ocular irritation (discomfort), in words (cat eye): no or very little irritating effect
13 | CC(C)OC(=O)CCC/C=C\C[C@H]1C(=O)C=C[C@@H]1CC[C@@H](O)CCc1ccccc1 [Substance 6, 13,14-dihydro-17-phenyl-18,19,20-trinor-PGA2-isopropylester] | – | – | – | – | 0.3 ± 0.3 | – | – | – | – | – | Conjunctival hyperemia, in words (rabbit eye): advantageous in this respect; Ocular irritation (discomfort), in words (cat eye): no or very little irritating effect
14 | CC(C)OC(=O)CCC/C=C\C[C@@H]1[C@@H](/C=C/[C@H](O)CCc2ccccc2)[C@H](O)C[C@@H]1O [Substance 7, 15-(R)-17-phenyl-18,19,20-trinor-PGF2α-isopropylester] | – | – | – | – | 2.0 ± 0.0 | significantly reduced the intraocular pressure | 12.9 ± 0.9 mmHg | 11.8 ± 0.6 mmHg | 11.0 ± 0.3 mmHg | none of the compounds had any significant irritating effect | Intraocular pressure, time after administration 8 hours (healthy human volunteers [1]): 11.2 ± 1.3 mmHg
15 | CC(C)OC(=O)CCC/C=C\C[C@@H]1[C@@H](CC[C@@H](O)CCc2ccccc2)[C@H](O)C[C@@H]1O [Substance 9, 13,14-dihydro-17-phenyl-18,19,20-trinor-PGF2α-isopropylester] | E 11.1 ± 0.9 mmHg | 8.3 ± 0.6 mmHg | 6.9 ± 0.4 mmHg | 7.7 ± 0.8 mmHg | 1.3 ± 0.3 | significantly reduced the intraocular pressure | 14.2 ± 0.5 mmHg | 13.3 ± 1.1 mmHg | 12.2 ± 0.4 mmHg | none of the compounds had any significant irritating effect | Conjunctival hyperemia, in words (rabbit eye): advantageous in this respect; Intraocular pressure, time after administration 8 hours (healthy human volunteers [1]): 12.5 ± 0.9 mmHg; Conjunctival/episcleral hyperemia, in words (healthy human volunteers [2]): very little if any conjunctival/episcleral hyperemia
